Results on 14 compounds are retold here after US20250353864A1, “INDAZOLE CONTAINING MACROCYCLES AND THEIR USE” (BLOSSOMHILL THERAPEUTICS, INC., priority 2022, published 2025).

The IC50 is the concentration needed to halve the response being measured.

Common to all, as to assay type: biochemical
One experiment addresses CLK1 (Homo sapiens (Human), UniProt P49759). The experiment in a line: Inhibition of CLK1 kinase activity evaluated at Nanosyn (ADP-Glo). As to conditions: ADP-Glo luminescence. As to the method:
(§1) Inhibition of CLK, CLK2, CLK3 and CLK4 Kinase Activity Evaluated at Nanosyn
(§2) Kinase protein and substrate were pre-diluted in the HEPES assay buffer (100 mM HEPES, pH 7.5, 0.01% Triton X-100, 0.1% BSA, 5 mM MgCl2, […] DTT, 10 Sodium Orthovanadate, […] Beta-Glycerophosphate) dispensed into 384 well plate (5 μL per well). Control samples (0%-inhibition in the absence of inhibitor, DMSO only) and 100%-inhibition (in the absence of enzyme) were assembled in replicates of six and were used to calculate %-inhibition in the presence of compounds. Test compounds were added to the protein samples by acoustic dispensing (Labcyte Echo550). Concentration of DMSO was equalized to 1% in all samples. Reactions were initiated by addition of ATP by acoustic dispensing (Labcyte Echo550) and incubated according to assay specific incubation time. After incubation. 5 μL of Promega ADP-Glo reagent was added and incubated for 40 minutes. After 40 minutes, 10 uL of Promega kinase detection reagent was added. After 10 min of incubation with Kinase detection reagent, the luminescence was read on microplate reader (Biotek Synergy).

The target of the next experiment is CLK2 (Homo sapiens (Human), UniProt P49760). The experiment in a line: Inhibition of CLK2 kinase activity evaluated at Nanosyn (ADP-Glo). As to conditions: ADP-Glo luminescence. As to the method:
as §1, §2
A general note: ADP-Glo turns the ADP formed in a reaction into a luminescent signal.

The target of another experiment is CLK3 (Homo sapiens (Human), UniProt P49761). The experiment in a line: Inhibition of CLK3 kinase activity evaluated at Nanosyn (ADP-Glo). To be noted: ADP-Glo luminescence. As for the experimental part: as §1, §2
For the next experiment, the target named is CLK4 (Homo sapiens (Human), UniProt Q9HAZ1). The experiment in a line: Inhibition of CLK4 kinase activity evaluated at Nanosyn (ADP-Glo). As to conditions: ADP-Glo luminescence. As to the method:
as §1, §2

The target of a further experiment is EGFR WT (Homo sapiens (Human), UniProt P00533). The experiment in a line: HotSpot radiometric kinase assay (Reaction Biology), EGFR WT. As to conditions: 10 μM ATP. In short, it runs like this: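 IC50 values come from curve fits of ^33P incorporation captured on P81 filters after acid washing. Kinase reactions ran 120 min at room temperature with 10 μM ATP, added about 20 min after compound. Buffer was Hepes pH 7.5 containing Mg, DTT and 1% DMSO.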

The next experiment concerns the target EGFR (D770_N771insNPG) (Homo sapiens (Human), UniProt P00533, INS770NPG). The experiment in a line: HotSpot radiometric kinase assay, EGFR (D770_N771insNPG). To be noted: 10 μM ATP, read-out: EGFR (Δ770_N771insNPG) IC50. In short, it runs like this: (§3)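 Radiometric filter-binding assay with EGFR mutant kinase/substrate pairs in 20 mM Hepes pH 7.5 with Mg, EGTA, Brij35, BSA, Na3VO4, DTT, 1% DMSO. Compound preincubated ~20 min, then ATP/^33P-ATP added at 10 μM final. Reaction 120 min at room temperature, spotted on P81 paper; IC50 from curve fits.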

Another experiment addresses EGFR Δ746-750 mutant (Homo sapiens (Human), UniProt P00533, DEL746-750). In words: HotSpot radiometric kinase assay, EGFR Δ746-750 mutant. As to conditions: 10 μM ATP. An outline of the steps: as §3
Experiment [1] deals with EGFR Δ746-750/C797S mutant (Homo sapiens (Human), UniProt P00533, C797S/DEL746-750). In words: HotSpot radiometric kinase assay, EGFR Δ746-750/C797S mutant. To be noted: 10 μM ATP. In short, it runs like this: as §3
The target in the next experiment is EGFR L858R mutant (Homo sapiens (Human), UniProt P00533, L858R). The experiment in a line: HotSpot radiometric kinase assay, EGFR L858R mutant. As to conditions: 10 μM ATP. An outline of the steps: as §3
The next experiment has as its target EGFR L858R/T790M mutant (Homo sapiens (Human), UniProt P00533, L858R/T790M). The experiment in a line: HotSpot radiometric kinase assay, EGFR L858R/T790M mutant. To be noted: 10 μM ATP. An outline of the steps:
as §3

The target in experiment [2] is EGFR L858R/T790M/C797S mutant (Homo sapiens (Human), UniProt P00533, C797S/L858R/T790M). In words: HotSpot radiometric kinase assay, EGFR L858R/T790M/C797S mutant. As to conditions: 10 μM ATP. An outline of the steps:
as §3

The structures appear in SMILES notation.

Sequence of CLK2 (P49760 whole entry): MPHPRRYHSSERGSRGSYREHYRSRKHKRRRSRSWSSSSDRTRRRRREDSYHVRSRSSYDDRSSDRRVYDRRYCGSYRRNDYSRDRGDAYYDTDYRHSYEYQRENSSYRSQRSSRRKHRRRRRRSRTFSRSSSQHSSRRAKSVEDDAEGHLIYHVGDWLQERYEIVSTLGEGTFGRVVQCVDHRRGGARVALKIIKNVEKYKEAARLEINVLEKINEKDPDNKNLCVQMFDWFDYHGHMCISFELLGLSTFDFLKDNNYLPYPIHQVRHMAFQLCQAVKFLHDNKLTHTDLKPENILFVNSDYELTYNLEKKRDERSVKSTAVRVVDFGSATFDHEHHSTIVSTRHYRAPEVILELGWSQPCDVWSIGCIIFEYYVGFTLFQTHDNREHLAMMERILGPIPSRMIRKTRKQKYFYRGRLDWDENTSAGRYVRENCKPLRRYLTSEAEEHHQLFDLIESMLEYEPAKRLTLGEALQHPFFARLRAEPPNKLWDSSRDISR
Sequence of CLK3 (P49761 whole entry): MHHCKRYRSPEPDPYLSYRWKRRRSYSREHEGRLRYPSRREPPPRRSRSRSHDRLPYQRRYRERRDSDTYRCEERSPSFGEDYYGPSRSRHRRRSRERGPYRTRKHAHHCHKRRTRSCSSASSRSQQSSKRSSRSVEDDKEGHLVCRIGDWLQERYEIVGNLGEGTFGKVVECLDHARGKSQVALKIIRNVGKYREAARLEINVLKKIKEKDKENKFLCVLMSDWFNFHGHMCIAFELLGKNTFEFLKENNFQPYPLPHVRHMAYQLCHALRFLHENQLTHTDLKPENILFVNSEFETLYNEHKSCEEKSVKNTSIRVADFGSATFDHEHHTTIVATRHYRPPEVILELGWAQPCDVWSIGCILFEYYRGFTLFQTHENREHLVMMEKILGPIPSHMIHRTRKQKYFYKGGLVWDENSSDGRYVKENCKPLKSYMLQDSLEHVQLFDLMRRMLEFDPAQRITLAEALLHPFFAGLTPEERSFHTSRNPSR
Sequence of CLK1 (P49759 whole entry): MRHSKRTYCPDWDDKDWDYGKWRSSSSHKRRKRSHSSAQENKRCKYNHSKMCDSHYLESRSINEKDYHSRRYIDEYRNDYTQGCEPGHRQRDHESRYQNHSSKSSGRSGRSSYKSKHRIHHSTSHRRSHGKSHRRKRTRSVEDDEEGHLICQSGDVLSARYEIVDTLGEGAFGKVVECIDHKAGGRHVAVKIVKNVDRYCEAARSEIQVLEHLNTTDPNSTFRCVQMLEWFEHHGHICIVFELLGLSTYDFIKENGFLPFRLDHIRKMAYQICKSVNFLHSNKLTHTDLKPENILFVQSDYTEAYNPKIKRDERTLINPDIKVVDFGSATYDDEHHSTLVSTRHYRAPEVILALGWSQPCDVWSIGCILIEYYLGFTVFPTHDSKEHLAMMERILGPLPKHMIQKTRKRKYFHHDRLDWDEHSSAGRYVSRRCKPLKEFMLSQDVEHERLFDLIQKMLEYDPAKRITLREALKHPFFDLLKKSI
Sequence of CLK4 (Q9HAZ1 whole entry): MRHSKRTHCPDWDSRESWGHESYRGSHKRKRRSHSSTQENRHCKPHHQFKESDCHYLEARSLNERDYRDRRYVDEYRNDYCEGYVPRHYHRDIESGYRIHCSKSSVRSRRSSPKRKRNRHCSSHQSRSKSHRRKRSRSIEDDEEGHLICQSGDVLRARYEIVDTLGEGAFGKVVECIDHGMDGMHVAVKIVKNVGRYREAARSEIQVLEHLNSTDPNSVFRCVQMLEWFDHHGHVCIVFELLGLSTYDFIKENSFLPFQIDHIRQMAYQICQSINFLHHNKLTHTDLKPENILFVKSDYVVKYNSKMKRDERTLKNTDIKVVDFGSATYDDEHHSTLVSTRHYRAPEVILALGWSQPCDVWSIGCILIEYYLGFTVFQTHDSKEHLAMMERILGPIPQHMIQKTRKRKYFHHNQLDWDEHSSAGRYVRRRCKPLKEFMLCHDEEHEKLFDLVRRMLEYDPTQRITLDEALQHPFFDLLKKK
Sequence of EGFR WT (P00533 25-1210): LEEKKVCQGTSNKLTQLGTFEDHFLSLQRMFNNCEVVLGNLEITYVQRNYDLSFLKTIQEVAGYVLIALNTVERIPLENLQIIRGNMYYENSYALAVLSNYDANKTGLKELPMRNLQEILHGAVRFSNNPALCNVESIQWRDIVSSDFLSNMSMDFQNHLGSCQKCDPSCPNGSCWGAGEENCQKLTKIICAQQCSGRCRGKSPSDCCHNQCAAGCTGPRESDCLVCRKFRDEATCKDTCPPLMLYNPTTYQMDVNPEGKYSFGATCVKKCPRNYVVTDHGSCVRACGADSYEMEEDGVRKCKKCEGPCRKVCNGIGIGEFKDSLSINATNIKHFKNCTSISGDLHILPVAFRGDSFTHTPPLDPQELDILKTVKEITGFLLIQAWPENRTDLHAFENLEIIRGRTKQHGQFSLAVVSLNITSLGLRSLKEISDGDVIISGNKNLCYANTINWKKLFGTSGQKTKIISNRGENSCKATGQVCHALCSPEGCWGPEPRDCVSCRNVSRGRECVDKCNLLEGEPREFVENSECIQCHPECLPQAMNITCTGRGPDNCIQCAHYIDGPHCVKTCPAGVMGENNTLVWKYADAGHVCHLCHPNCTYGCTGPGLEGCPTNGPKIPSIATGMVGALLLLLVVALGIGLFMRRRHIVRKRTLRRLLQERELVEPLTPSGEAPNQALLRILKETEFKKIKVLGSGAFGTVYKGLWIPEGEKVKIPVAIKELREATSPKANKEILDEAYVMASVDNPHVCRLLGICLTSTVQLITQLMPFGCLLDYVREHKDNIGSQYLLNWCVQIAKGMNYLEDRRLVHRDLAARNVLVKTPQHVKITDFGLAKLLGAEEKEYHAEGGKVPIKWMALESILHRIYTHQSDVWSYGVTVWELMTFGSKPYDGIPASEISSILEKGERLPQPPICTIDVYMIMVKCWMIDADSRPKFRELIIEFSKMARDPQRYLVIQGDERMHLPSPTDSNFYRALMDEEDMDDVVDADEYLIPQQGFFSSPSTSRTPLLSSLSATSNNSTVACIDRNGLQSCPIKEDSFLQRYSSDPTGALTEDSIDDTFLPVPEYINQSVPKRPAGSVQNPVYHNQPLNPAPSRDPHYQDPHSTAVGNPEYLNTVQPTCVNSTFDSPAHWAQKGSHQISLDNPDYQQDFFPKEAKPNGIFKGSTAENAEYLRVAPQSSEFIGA
Sequence of EGFR L858R/T790M mutant (P00533 25-1210 T790M/L858R): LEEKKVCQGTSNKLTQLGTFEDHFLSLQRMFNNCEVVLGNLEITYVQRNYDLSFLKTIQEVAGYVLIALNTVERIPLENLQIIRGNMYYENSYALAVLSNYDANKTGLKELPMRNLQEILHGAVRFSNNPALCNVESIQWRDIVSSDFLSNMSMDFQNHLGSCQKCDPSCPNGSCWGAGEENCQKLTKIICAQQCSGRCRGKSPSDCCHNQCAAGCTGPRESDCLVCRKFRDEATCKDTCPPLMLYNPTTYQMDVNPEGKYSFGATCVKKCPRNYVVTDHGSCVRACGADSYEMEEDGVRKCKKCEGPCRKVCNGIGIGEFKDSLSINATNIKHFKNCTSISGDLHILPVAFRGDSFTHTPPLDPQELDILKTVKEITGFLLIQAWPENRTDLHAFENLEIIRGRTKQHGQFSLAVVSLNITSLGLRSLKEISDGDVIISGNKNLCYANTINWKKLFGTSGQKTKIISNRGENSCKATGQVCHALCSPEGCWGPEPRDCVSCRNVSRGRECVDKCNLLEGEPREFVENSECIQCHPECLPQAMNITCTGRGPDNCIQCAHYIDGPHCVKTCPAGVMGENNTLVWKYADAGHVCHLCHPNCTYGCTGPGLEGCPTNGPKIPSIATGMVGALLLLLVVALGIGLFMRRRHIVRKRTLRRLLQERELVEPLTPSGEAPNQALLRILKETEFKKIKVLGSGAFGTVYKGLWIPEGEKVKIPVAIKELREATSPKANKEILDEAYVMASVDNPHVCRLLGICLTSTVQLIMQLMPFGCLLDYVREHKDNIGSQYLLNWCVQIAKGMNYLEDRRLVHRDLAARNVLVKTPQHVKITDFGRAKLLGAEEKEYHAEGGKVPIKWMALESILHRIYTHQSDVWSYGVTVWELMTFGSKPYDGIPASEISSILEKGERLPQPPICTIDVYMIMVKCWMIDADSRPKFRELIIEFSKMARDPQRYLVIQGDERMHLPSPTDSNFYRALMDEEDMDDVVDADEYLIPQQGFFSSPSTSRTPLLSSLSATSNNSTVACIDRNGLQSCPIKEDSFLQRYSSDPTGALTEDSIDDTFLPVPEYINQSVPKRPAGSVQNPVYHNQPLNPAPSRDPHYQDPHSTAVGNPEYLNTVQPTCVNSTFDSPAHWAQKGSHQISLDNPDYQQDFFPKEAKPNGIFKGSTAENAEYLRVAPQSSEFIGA
Sequence of EGFR Δ746-750 mutant (P00533 other isoform, or with tags, fused parts or gaps del 1-668/del 746-750 limits assumed): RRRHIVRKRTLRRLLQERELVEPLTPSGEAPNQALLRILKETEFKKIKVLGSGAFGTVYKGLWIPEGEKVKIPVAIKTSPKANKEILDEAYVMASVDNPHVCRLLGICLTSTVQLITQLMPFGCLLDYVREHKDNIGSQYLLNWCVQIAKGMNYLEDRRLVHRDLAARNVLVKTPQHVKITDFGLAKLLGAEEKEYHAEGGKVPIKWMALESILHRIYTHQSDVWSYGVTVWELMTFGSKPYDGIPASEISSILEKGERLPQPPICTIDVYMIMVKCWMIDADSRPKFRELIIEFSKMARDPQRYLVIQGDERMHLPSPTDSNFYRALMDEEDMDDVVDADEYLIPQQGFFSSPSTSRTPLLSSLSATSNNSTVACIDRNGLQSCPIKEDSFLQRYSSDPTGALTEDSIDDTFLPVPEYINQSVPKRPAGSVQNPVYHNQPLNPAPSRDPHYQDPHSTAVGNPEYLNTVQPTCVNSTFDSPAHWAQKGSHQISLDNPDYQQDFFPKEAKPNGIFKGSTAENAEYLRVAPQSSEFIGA

Turning to `Cc1nn(C)c2c1/C=C/c1n[nH]c3ccc(cc13)-c1cnn(C)c1O[C@@H](C)CN(C)[C@H]2C` (single isomer, unassigned) [Example 145], the IC50 on CLK1 was 0.21 nM; at CLK2, 0.04 nM; at CLK3, 99.6 nM; on CLK4, 0.52 nM.
With `Cc1nn(C)c2c1/C=C/c1n[nH]c3ccc(cc13)-c1cnn(C)c1COCCO2` [Ex. 6, (17E)-8,14,16-trimethyl-2,8,9,11,12,14-hexahydro-3,5-etheno[1,4]dioxacyclopentadecino[11,10-c:15,14-c′:6,7-c″ ]tripyrazole], the IC50 on CLK1 was found to be 0.34 nM; on CLK2, 0.23 nM; at CLK3 it was 178 nM; on CLK4, 0.52 nM.
Turning to `CC(=O)N1CCOc2c(cnn2C)-c2ccc3[nH]nc(c3c2)/C=C/c2c(nn(C)c2C)C1` [Example 52, 1-[(17E)-8,15,16-trimethyl-2,8,10,11,13,15-hexahydro-12H-3,5-ethenotripyrazolo[3,4-f:3′,4′-j:4″,3″- n][1,4]oxazacyclopentadecin-12-yl]ethan-1-one], the IC50 on CLK1 was determined as 0.24 nM; at CLK2, 0.19 nM; at CLK3, 148 nM; at CLK4, 0.56 nM.
Take `Cc1noc2c1/C=C/c1n[nH]c3ccc(cc13)-c1cnn(C)c1O[C@@H](C)CN(C)C2` [Example 141, (10S,17E)-8,10,12,16-tetramethyl-2,8,10,11,12,13-hexahydro-3,5-etheno[1,2]oxazolo[5,4-f]dipyrazolo[3,4-j:4′,3′-n][1,4]oxazacyclopentadecine]: the IC50 stood at 0.11 nM on CLK1, 0.03 nM on CLK2, 41.9 nM at CLK3 and 0.13 nM on CLK4.
On the same counts, the results for `Cc1snc2c1/C=C/c1n[nH]c3ccc(cc13)-c1cnn(C)c1O[C@@H](C)CN(C)C2` [Example 158, (10S,17E)-8,10,12,16-tetramethyl-2,8,10,11,12,13-hexahydro-3,5-ethenodipyrazolo[3,4-j:4′,3′-n][1,2]thiazolo[3,4-f][1,4]oxazacyclopentadecine] are 0.14 nM, 0.4 nM, 664 nM and 0.31 nM.
On the same counts, the results for `C[C@H]1CN(C)Cc2c(c(C#N)nn2CCO)/C=C/c2n[nH]c3ccc(cc23)-c2cnn(C)c2O1` [Example 208, (10S,17E)-14-(2-hydroxyethyl)-8,10,12-trimethyl-2,10,11,12,13,14-hexahydro-8H-3,5-ethenotripyrazolo[3,4-f:3′,4′-j:4″,3″-n][1,4]oxazacyclopentadecine-16-carbonitrile] are 0.59 nM, 0.13 nM, 220 nM and 1.53 nM.
On to `CC(C)Oc1nn(CCO)c2c1/C=C/c1n[nH]c3ccc(cc13)-c1cnn(C)c1O[C@@H](C)CN(C)[C@H]2C` [Example 224, 2-{(10S,13S,17E)-8,10,12,13-tetramethyl-16-[(propan-2-yl)oxy]-2,8,10,11,12,13-hexahydro-14H-3,5-ethenotripyrazolo[3,4-f:3′,4′-j:4″,3″-n][1,4]oxazacyclopentadecin-14-yl}ethan-1-ol], for which the IC50 on CLK1 was determined as 0.69 nM; at CLK2, 1.16 nM; on CLK3, 253 nM; at CLK4, 1.46 nM.
For `CCOc1nn(CCO)c2c1/C=C/c1n[nH]c3cc(F)c(cc13)-c1c(C)nn(C)c1O[C@@H](C)CN(C(C)C)C2` [Example 239, 2-[(10S,17E)-16-ethoxy-19-fluoro-6,8,10-trimethyl-12-(propan-2-yl)-2,8,10,11,12,13-hexahydro-14H-3,5-ethenotripyrazolo[3,4-f:3′,4′-j:4″,3″-n][1,4]oxazacyclopentadecin-14-yl]ethan-1-ol], the IC50 worked out at 62.1 nM against EGFR WT; 527 nM at EGFR (D770_N771insNPG); 18.3 nM against EGFR Δ746-750 mutant; 9.44 nM in experiment [1]; 30.5 nM on EGFR L858R mutant; 36.4 nM at EGFR L858R/T790M mutant. The same compound gave an IC50 in experiment [2] of 8.44 nM.
Take `CC(C)Oc1nn(CCO)c2c1/C=C/c1n[nH]c3ccc(cc13)-c1cnn(C)c1O[C@H](C)[C@H]1CCCN1C2` [Example 253, 2-[(8aR,9R,19E)-9,11-dimethyl-1-[(propan-2-yl)oxy]-7,8,8a,9,11,17-hexahydro-6H-14,16-ethenotripyrazolo[3,4-f:3′,4′-j:4″,3″-n]pyrrolo[2,1-c][1,4]oxazacyclopentadecin-3(4H)-yl]ethan-1-ol]: the IC50 on EGFR WT was determined as 1.63 nM; at EGFR (D770_N771insNPG) it was 3.21 nM; against EGFR Δ746-750 mutant, 0.75 nM; in experiment [1], 1.98 nM; against EGFR L858R mutant, 1.66 nM; on EGFR L858R/T790M mutant, 2.55 nM. Besides, the IC50 in experiment [2] is 5.27 nM.
`CCOc1nn(CCO)c2c1/C=C/c1n[nH]c3ccc(cc13)-c1c(C#N)nn(C)c1O[C@@H](C)CN(CC)C2` [Example 290, (10S,17E)-16-ethoxy-12-ethyl-14-(2-hydroxyethyl)-8,10-dimethyl-2,10,11,12,13,14-hexahydro-8H-3,5-ethenotripyrazolo[3,4-f:3′,4′-j:4″,3″-n][1,4]oxazacyclopentadecine-6-carbonitrile]: the IC50 at CLK1 is 69.4 nM; on CLK2 it was 102 nM; at CLK3 it was 1000 nM; at CLK4 it was 38.1 nM.
For `C#Cc1nn(C)c2c1-c1ccc3[nH]nc(c3c1)/C=C/c1c(OCC)nn(CCO)c1CN(C)C[C@H](C)O2` [Example 292, 2-[(10S,17E)-16-ethoxy-6-ethynyl-8,10,12-trimethyl-2,8,10,11,12,13-hexahydro-14H-3,5-ethenotripyrazolo[3,4-f:3′,4′-j:4″,3″-n][1,4]oxazacyclopentadecin-14-yl]ethan-1-ol] the same measures were 1.01 nM, 4.87 nM, 1000 nM and 1.36 nM.
For `CCOc1c2c(nn1C)CN(C(C)=O)CCOc1c(cnn1C)-c1ccc3[nH]nc(c3c1)/C=C/2` [Example 294, 1-[(17E)-16-ethoxy-8,15-dimethyl-2,8,10,11,13,15-hexahydro-12H-3,5-ethenotripyrazolo[3,4-f:3′,4′-j:4″,3″- n][1,4]oxazacyclopentadecin-12-yl]ethan-1-one] the same measures were 1.27 nM, 3.25 nM, 1000 nM and 1.37 nM.
For the compound `CCNc1nn(CCO)c2c1/C=C/c1n[nH]c3ccc(cc13)-c1cnn(C)c1O[C@@H](C)CN(C)C2` [Example 295, 2-[(10S,17E)-16-(ethylamino)-8,10,12-trimethyl-2,8,10,11,12,13-hexahydro-14H-3,5-ethenotripyrazolo[3,4-f:3′,4′-j:4″,3″-n][1,4]oxazacyclopentadecin-14-yl]ethan-1-ol], the 50% inhibitory concentration (IC50) at CLK1 amounted to 0.64 nM; at CLK2, 0.78 nM; on CLK3 it was 13.8 nM; at CLK4, 1.12 nM.
Regarding `CCN1Cc2c(c(OC(C)C)nn2C[C@H](C)O)/C=C/c2n[nH]c3cc(F)c(cc23)-c2cnn(C)c2O[C@@H](C)C1` [Example 296, (2S)-1-{(10S,17E)-12-ethyl-19-fluoro-8,10-dimethyl-16-[(propan-2-yl)oxy]-2,8,10,11,12,13-hexahydro-14H-3,5-ethenotripyrazolo[3,4-f:3′,4′-j:4″,3″-n][1,4]oxazacyclopentadecin-14-yl}propan-2-ol], the IC50 at CLK1 is 1.2 nM; on CLK2 it was 1.15 nM; at CLK3, 33.4 nM; on CLK4, 1.57 nM.
